Here are results for one molecule from patent publication US10925913B2, “Low toxic tripterygium neoglycosides, preparation method and application thereof” (priority 2017, dated 2021).

Test [1] deals with Raw264.7 cells. The test is described as follows: Anti-inflammatory activity in LPS-induced Raw264.7 cell inflammation model. Type of test: cell-based, rat. As to the method: Raw264.7 37° C., 5% CO2 RPMI-1640+10% FBS+1% Pen Strep. Finally, the cell was cultured in an incubator until 80% of the cells adhere to the wall. The cells in logarithmic growth phase were taken and adjusted to the appropriate cell density in a 96-well plate after digestion with 0.25% trypsin. After adhering to the wall in monolayer, the cell was cultured in a synchronized medium for 12 hours. After entering the quiescent period, except for the blank control group, 1 mL of LPS (1 μg/mL) was used as a modeling agent in other groups to induce the cell inflammation model in the cell in each group. Meanwhile, drug treatment is carried out: 1 mL of culture medium was added to the model group, 1 mL of liquid drug with corresponding concentration was added to the drug administration group (triptolide 50, 100, 150, 200 μg/mL dose group), and 2 ml of culture medium was directly added to the blank control group. Western blot, qPCR, ELISA and other methods were used to detect the expression levels of inflammation-related proteins, genes, cytokines, the expressions of NF-κB transcription-related factors, and the expressions of IL-6, IL-10, TNF-α and other inflammatory cytokines in different treatment groups.

Test [2] concerns normal T and B lymphocytes. Briefly: Immunosuppressive activity: inhibition of normal T/B lymphocyte increment (MTT). Type of test: cell-based, rat. Particulars: FIG. 4. As to the method:
The rats were sacrificed by neck amputation and soaked in 75% ethanol. The spleens of the rats were taken out in an ultra-clean bench, washed in DPBS for 3 times, fully moistened, 200 mesh gauze was placed on a dish (35 mm diameter), it is evenly ground in one direction by a piston of a 10 mL syringe, the spleen was moistened with DPBS while grinding. The collected lymphocyte suspension was centrifuged at 1500 rpm for 3 min, and 7 mL of erythrocyte lysate was added to each spleen suspension. After acting at room temperature for 30 min, the cells were centrifuged at 1500 rpm for 3 min. After discarding supernatant, the cells were washed with DPBS for 3 times to remove excess serum, added with […] of 70% Percoll to the bottom layer of 15 mL centrifuge tube and […] of 40% Percoll to the upper layer of 15 mL centrifuge tube, then centrifuged 800 g at room temperature for 20 min on a horizontal centrifuge.

Test [3] deals with podocyte cell line MPCS. Briefly: Protection of podocytes from ADM-induced apoptosis. It counts as cell-based, rat. Here is the method: Rat immortalized podocyte cell line MPCS is presented by nephrology department of Guangdong provincial hospital of Traditional Chinese Medicine. The treatment methods of […] are presented as follows: Western blot, IFC, qPCR, ELISA and other methods are used to detect the expression levels of inflammation-related proteins, genes and cytokines in different treatment groups. The podocyte cell is temperature sensitive cell, increases at 33° C. RPMI-1640+10% FBS+1% Pen Strep+10 U/mL γ-IFN, and differentiates at 37° C. RPMI-1640+10% FBS+1% Pen Strep medium for 10-14 days. […] The expression of podocaine membrane protein podocine and apoptosis-related gene Bax were detected by flow cytometry using FITC-labeled Annexin V and Propidium iodide (PI) to differentiate early apoptotic cells from late apoptotic cells and dead cells.

Test [4] concerns rat with ear swelling model. Particulars: Zheng Jiarun, et al., 1991; cited from earlier work.
The subject of test [5] is induced T/B lymphocyte. Briefly: Specific inhibition experiment: Con A- or LPS-induced T/B lymphocyte increment (MTT). It counts as cell-based, rat. Particulars: FIG. 5. As to the method:
The pretreatment of lymphocytes in the specific inhibition experiment is the same as above. After lymphocytes inoculated into 96-well culture plates, drug was added. 200 μL of drug was added each to blank control group (culture medium only), T lymphocyte specific increment inducer Con A model group (5 μg/mL, corresponding model group) and B lymphocyte specific increment inducer LPS model group (5 μg/mL, corresponding model group). Con A administration group was firstly added multiple doses of T lymphocyte specific increment inducer Con A 100 μL ([…], corresponding model group) separately, and then added 100 μL of triptriolide (100, 200, 300, 400 μg/mL) with different concentrations separately. In LPS administration group, multiple doses of B lymphocyte specific increment inducer LPS 100 μL ([…], corresponding model group) were added respectively, and 100 μL of triptriolide (100, 200, 300, 400 μg/mL) with different concentrations were added respectively.

SMILES strings stand for the structures. Entries after “also recorded” stand apart in the source; their conditions may differ.

For the molecule `CC(C)[C@]1(O)[C@H](O)[C@@H]2O[C@]23[C@]2(O[C@H]2C[C@H]2C4=C(CC[C@@]23C)C(=O)OC4)[C@@H]1O` [triptriolide], the “effects of inflammatory factors TNF-α and IL-10” value in test [1] (FIGS. 7 and 8) is “effectively reduce”. In addition, the “cytokine secretion in LPS-induced inflammatory injury model” value in test [1] (LPS 1 μg/mL, FIG. 6) is on record as “can improve cytokine secretion”. The “expression of IL-10” value in test [1] (at high concentration) was “can be increased”. In test [2] (50, 100, 150, 200 μg/mL, 24 h, MTT), the “inhibiting increment of normal T and B lymphocytes in vitro” value was “dose-dependent”. For the same molecule, the “cell activity of normal T and B lymphocytes” value in test [2] (each administration group, p<0.05) was “significantly lower than that of the control group and model group”. The apoptosis of podocytes result in test [3] (0.8 μg/mL ADM apoptosis model, FIGS. 9 to 11) was “attenuated”. Also, in test [3] (0.8 μg/mL ADM, high concentration), the “apoptosis of podocytes at high concentration” value is on record as “upward trend”. For the same molecule, in test [4], the anti-inflammatory activity result is on record as “weak anti-inflammatory activity” and the immunosuppressive activity entry is recorded as “no immunosuppressive activity”. For the same molecule, the immunosuppressive effect entry in test [5] (Con A-induced T vs LPS-induced B lymphocytes) is given as “lower immunosuppressive effect; also recorded: on T lymphocytes is significantly higher than that on B lymphocytes”. The “cell activity of Con A- / LPS-induced lymphocytes” value in test [5] (different concentrations, 24 h, MTT) is reported as “higher than that of the blank control group, but lower than that of the model group”.
